Data: patent US20240294531A1, “COVALENT HETEROCYCLES AND USES THEREOF” (Kumquat Biosciences Inc., priority 2022, published 2024)

Legend:
BTK wildtype protein = BTK wildtype protein (Homo sapiens (Human), UniProt Q06187); assay: BTK wildtype HTRF displacement assay; type: binding; conditions: 1-hour incubation; read-out: BTK (wt) IC50
Experimental: (§1) The ability of a compound to bind BTK wildtype or BTK C481S proteins was measured using an HTRF displacement assay. The assay measures the ability of a compound to displace a tracer ligand bound to the active site of BTK wildtype or BTK C481 S proteins.
(§2) Test compounds were prepared as 10 mM stock solutions in DMSO (Fisher cat #BP231-100). Compounds to be assayed were dispensed using an Echo 650 acoustic dispenser (Beckman Coulter) on a 384 well plate in 6 doses applying four-fold dilutions from the highest concentration of 5 μM. N-terminal GST-tagged recombinant full-length BTK wildtype protein and BTK C481 S protein 2-659 were purchased from Carna Biosciences, Inc (Kobe, Japan). BTK wildtype or BTK C481S protein was separately incubated with compound in assay buffer containing kinase tracer 239 (Thermo Fisher) and Mab anti GST-Th (PerkinElmer). After a 1-hour incubation at room temperature, the HTRF signal was measured using SPARK plate reader (Tecan) using the TR fluorescence mode. The HTRF ratio is calculated for DMSO, no protein control and compound samples using the following equation: HTRF ratio=Emmision665/Emmision620×10^4. The signal for the no protein control samples was used to subtract background noise from the DMSO and compound samples. Background subtracted HTRF ratios are used to calculate the percent inhibition, where DMSO controls are set to 0 percent inhibition. The percent inhibition is plotted as a function of compound concentration and IC50 values were calculated from a four-parameter logistic fit in Prism v9.4 (GraphPad), where the bottom and top are constrained to 0 and 100, respectively.

BTK C481S protein = BTK C481S protein (Homo sapiens (Human), UniProt Q06187, C481S); assay: BTK C481S HTRF displacement assay; type: binding; conditions: for IC50: 1-hour incubation; for Ki: TBM-L-hydrogen compounds, KI=IC50/(1+([Tracer]/Kd)), [Tracer] 50 nM, Kd 54 nM
Experimental: as §1, §2
The same assay was used to measure the activity of selected compounds of the formula TBM-L-hydrogen. Using the IC50 value observed for a given reversible test compound, the KI of the test compound can be assessed using the formula KI=IC50/(1+([Tracer]/Kd)), wherein the tracer concentration in the assay [Tracer] is 50 nM and the tracer Kd for BTK C481S is 54 nM.

Sequence of BTK C481S protein (Q06187 2-659 C481S): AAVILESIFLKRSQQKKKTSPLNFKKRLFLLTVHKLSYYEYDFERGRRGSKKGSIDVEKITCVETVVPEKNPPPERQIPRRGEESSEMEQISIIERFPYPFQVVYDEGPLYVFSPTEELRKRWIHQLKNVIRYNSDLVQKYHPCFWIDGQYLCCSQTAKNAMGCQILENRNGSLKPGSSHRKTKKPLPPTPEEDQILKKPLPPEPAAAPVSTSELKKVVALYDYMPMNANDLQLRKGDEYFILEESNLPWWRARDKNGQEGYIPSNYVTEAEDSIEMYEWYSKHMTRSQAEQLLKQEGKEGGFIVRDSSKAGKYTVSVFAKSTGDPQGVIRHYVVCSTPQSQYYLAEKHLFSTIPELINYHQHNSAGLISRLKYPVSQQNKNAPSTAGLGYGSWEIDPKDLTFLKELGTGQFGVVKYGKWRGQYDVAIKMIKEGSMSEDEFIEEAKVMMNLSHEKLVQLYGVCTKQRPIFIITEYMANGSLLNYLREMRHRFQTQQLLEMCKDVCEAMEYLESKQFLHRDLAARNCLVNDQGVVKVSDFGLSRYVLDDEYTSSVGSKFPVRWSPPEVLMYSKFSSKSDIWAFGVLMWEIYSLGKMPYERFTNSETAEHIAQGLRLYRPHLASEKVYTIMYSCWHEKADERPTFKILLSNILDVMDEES
Sequence of BTK wildtype protein (Q06187 2-659): as the sequence (Q06187 2-659 C481S) above, with S480C counted along it

Structure (SMILES)	IC50 (BTK wildtype protein) [µM]	IC50 (BTK C481S protein) [µM]	Ki (BTK C481S protein) [µM]
COc1ccc(F)cc1C(=O)NCc1ccc(-c2nn(C[C@@H](C)N(C)C(=O)n3cncn3)c3ncnc(N)c23)cc1 [Compound 125, (R)-N-(1-(4-amino-3-(4-((5-fluoro-2-methoxybenzamido)methyl)phenyl)-1H-pyrazolo[3,4-d]pyrimidin-1-yl)propan-2-yl)-N-methyl-1H-1,2,4-triazole-1-carboxamide]	≤ 1	≤ 1	–
COC[C@@H](C1CCNc2c(C(N)=O)c(-c3ccc(Oc4ccccc4)cc3)nn21)N(C)C(=O)n1cncn1 (stereo partly drawn) [Compound 285, 7-((R)-2-methoxy-1-(N-methyl-1H-1,2,4-triazole-1-carboxamido)ethyl)-2-(4-phenoxyphenyl)-4,5,6,7-tetrahydropyrazolo [1,5-a]pyrimidine-3-carboxamide]	> 1	> 1	–
CC1CC(n2nc(-c3ccc(Oc4ccccc4)cc3)c3c(N)ncnc32)CCN1C(=O)n1cncn1 (stereo not shown) [Compound 144, (4-(4-amino-3-(4-phenoxyphenyl)-1H-pyrazolo[3,4-d]pyrimidin-1-yl)-2-methylpiperidin-1-yl)(1H-1,2,4-triazol-1-yl)methanone]	≤ 1	≤ 1	–
COc1ccc(F)cc1C(=O)NCc1ccc(-c2nn(C3CCC(N(C)C(=O)n4cncn4)C3)c(N)c2C(N)=O)cc1 (stereo not shown) [Compound 201, N-(3-(5-amino-4-carbamoyl-3-(4-((5-fluoro-2-methoxybenzamido)methyl)phenyl)-1H-pyrazol-1-yl)cyclopentyl)-N-methyl-1H-1,2,4-triazole-1-carboxamide]	≤ 1	–	–
NC(=O)c1c(-c2ccc(Oc3ccccc3)cc2)nn2c1NCCC2C1CCCN(C(=O)n2cncn2)C1 (stereo not shown) [Compound 283, 7-(1-(1H-1,2,4-triazole-1-carbonyl)piperidin-3-yl)-2-(4-phenoxyphenyl)-4,5,6,7-tetrahydropyrazolo[1,5-a] pyrimidine-3-carboxamide]	> 1	–	–
COc1ccc(F)cc1C(=O)NCc1ccc(-c2nn(CCNC3CC3)c3ncnc(N)c23)cc1 [reference compound]	–	–	< 0.66
NC(=O)c1c(-c2ccc(Oc3ccccc3)cc2)nn2c1NCCC2C1CCN1C(=O)n1cncn1 (stereo not shown) [Compound 180, 7-(1-(1H-1,2,4-triazole-1-carbonyl)azetidin-2-yl)-2-(4-phenoxy-phenyl)-4,5,6,7-tetrahydropyrazolo [1,5-a]pyrimidine-3-carboxamide]	–	> 1	–
COc1ccc(C)cc1C(=O)NCc1ccc(-c2nn(CC3CCCCN3)c3ncnc(N)c23)cc1 (stereo not shown) [reference compound]	–	–	< 0.6
COc1ccc(F)cc1C(=O)NCc1ccc(-c2nn(C(C)C(C)CN(C)C(=O)n3cncn3)c3ncnc(N)c23)cc1 (stereo not shown) [Compound 189, N-(3-(4-amino-3-(4-((5-fluoro-2-methoxybenzamido)methyl)phenyl)-1H-pyrazolo[3,4-d]pyrimidin-1-yl)-2-methylbutyl)-N-methyl-1H-1,2,4-triazole-1-carboxamide]	–	≤ 1	–
COc1ccc(F)cc1C(=O)NCc1ccc(-c2nn(C3CCCC(N(C)C(=O)n4cncn4)C3)c3ncnc(N)c23)cc1 (stereo not shown) [Compound 177, N-(3-(4-amino-3-(4-((5-fluoro-2-methoxybenzamido)methyl)phenyl)-1H-pyrazolo[3,4-d]pyrimidin-1-yl)cyclohexyl)-N-methyl-1H-1,2,4-triazole-1-carboxamide]	–	≤ 1	–
COc1ccc(F)cc1C(=O)NCc1ccc(-c2nn(C(C)CC3CCCN3C(=O)n3cncn3)c3ncnc(N)c23)cc1 (stereo not shown) [Compound 166, N-(4-(1-(1-(1-(1H-1,2,4-triazole-1-carbonyl)pyrrolidin-2-yl)propan-2-yl)-4-amino-1H-pyrazolo[3,4-d]pyrimidin-3-yl)benzyl)-5-fluoro-2-methoxybenzamide]	–	≤ 1	–
COc1ccc(F)cc1C(=O)NCc1ccc(-c2nn(C3CCCC(N(C)C(=O)n4cncn4)C3)c3ncnc(N)c23)cc1 (stereo not shown) [Compound 290, N-(3-(4-amino-3-(4-((5-fluoro-2-methoxybenzamido)methyl)phenyl)-1H-pyrazolo[3,4-d]pyrimidin-1-yl)cyclohexyl)-N-methyl-1H-1,2,4-triazole-1-carboxamide]	≤ 1	–	–
COc1ccc(F)cc1C(=O)NCc1ccc(-c2nn(C3CCCCC(N(C)C(=O)n4cncn4)C3)c3ncnc(N)c23)cc1 (stereo not shown) [Compound 278, N-(3-(4-amino-3-(4-((5-fluoro-2-methoxybenzamido)methyl)phenyl)-1H-pyrazolo[3,4-d]pyrimidin-1-yl)cycloheptyl)-N-methyl-1H-1,2,4-triazole-1-carboxamide]	≤ 1	–	–
CCNCC1CCNc2c(C(N)=O)c(-c3ccc(Oc4ccccc4)cc3)nn21 (stereo not shown) [reference compound]	–	–	< 1
COc1ccc(F)cc1C(=O)NCc1ccc(-c2nn(C3CCCCC(N(C)C(=O)n4cncn4)C3)c3ncnc(N)c23)cc1 (stereo not shown) [Compound 147, N-(3-(4-amino-3-(4-((5-fluoro-2-methoxybenzamido)methyl)phenyl)-1H-pyrazolo[3,4-d]pyrimidin-1-yl)cycloheptyl)-N-methyl-1H-1,2,4-triazole-1-carboxamide]	–	≤ 1	–
COc1ccc(F)cc1C(=O)NCc1ccc(-c2nn(C3CCCC4(CCN4C(=O)n4cncn4)C3)c3ncnc(N)c23)cc1 (stereo not shown) [Compound 236, N-(4-(1-(1-(1H-1,2,4-triazole-1-carbonyl)-1-azaspiro[3.5]nonan-6-yl)-4-amino-1H-pyrazolo[3,4-d]pyrimidin-3-yl)benzyl)-5-fluoro-2-methoxybenzamide]	≤ 1	–	–

Results, then the compound that gave them:

IC50 (BTK wildtype protein) [µM]	IC50 (BTK C481S protein) [µM]	Ki (BTK C481S protein) [µM]	Structure (SMILES)
≤ 1	≤ 1	–	NC(=O)c1c(-c2ccc(Oc3ccccc3)cc2)nn2c1NCCC2C1CN(C(=O)n2cncn2)C1 (stereo not shown) [Compound 220, 7-(1-(1H-1,2,4-triazole-1-carbonyl)azetidin-3-yl)-2-(4-phenoxyphenyl)-4,5,6,7-tetrahydropyrazolo[1,5-a] pyrimidine-3-carboxamide]
≤ 1	≤ 1	–	CN(C(=O)n1cncn1)[C@@H]1CCC[C@@H](n2nc(-c3ccc(Oc4ccccc4)cc3)c(C(N)=O)c2N)C1 [Compound 247, N-((1R,3R)-3-(5-amino-4-carbamoyl-3-(4-phenoxyphenyl)-1H-pyrazol-1-yl)cyclohexyl)-N-methyl-1H-1,2,4-triazole-1-carboxamide]
–	≤ 1	–	CN(C(=O)n1cncn1)C1CCCCC(n2nc(-c3ccc(Oc4ccccc4)cc3)c3c(N)ncnc32)C1 (stereo not shown) [Compound 118, N-(3-(4-amino-3-(4-phenoxyphenyl)-1H-pyrazolo[3,4-d]pyrimidin-1-yl)cycloheptyl)-N-methyl-1H-1,2,4-triazole-1-carboxamide]
–	≤ 1	–	CN(C(=O)n1cncn1)C1CCC(n2nc(-c3ccc(Oc4ccccc4)cc3)c(C(N)=O)c2N)C1 (stereo not shown) [Compound 302, N-(3-(5-amino-4-carbamoyl-3-(4-phenoxyphenyl)-1H-pyrazol-1-yl)cyclopentyl)-N-methyl-1H-1,2,4-triazole-1-carboxamide]
–	≤ 1	–	CN(C(=O)n1cncn1)C1CCCC(n2nc(-c3ccc(Oc4ccccc4)cc3)c3c(N)ncnc32)C1 (stereo not shown) [Compound 160, N-(3-(4-amino-3-(4-phenoxyphenyl)-1H-pyrazolo[3,4-d]pyrimidin-1-yl)cyclohexyl)-N-methyl-1H-1,2,4-triazole-1-carboxamide]
≤ 1	–	–	CN(C(=O)n1cncn1)C1CCC(n2nc(-c3ccc(Oc4ccccc4)cc3)c3c(N)ncnc32)C1 (stereo not shown) [Compound 216, N-(3-(4-amino-3-(4-phenoxyphenyl)-1H-pyrazolo[3,4-d]pyrimidin-1-yl)cyclopentyl)-N-methyl-1H-1,2,4-triazole-1-carboxamide]
≤ 1	–	–	CN(C(=O)n1cncn1)C1CCCC(n2nc(-c3ccc(Oc4ccccc4)cc3)c3c(N)ncnc32)C1 (stereo not shown) [Compound 233, N-(3-(4-amino-3-(4-phenoxyphenyl)-1H-pyrazolo[3,4-d]pyrimidin-1-yl)cyclohexyl)-N-methyl-1H-1,2,4-triazole-1-carboxamide]
≤ 1	–	–	CN(C(=O)n1cncn1)C1CCCCC(n2nc(-c3ccc(Oc4ccccc4)cc3)c3c(N)ncnc32)C1 (stereo not shown) [Compound 314, N-(3-(4-amino-3-(4-phenoxyphenyl)-1H-pyrazolo[3,4-d]pyrimidin-1-yl)cycloheptyl)-N-methyl-1H-1,2,4-triazole-1-carboxamide]
–	≤ 1	–	CN(C(=O)n1cncn1)C1CCC(n2nc(-c3ccc(Oc4ccccc4)cc3)c3c(N)ncnc32)C1 (stereo not shown) [Compound 116, N-(3-(4-amino-3-(4-phenoxyphenyl)-1H-pyrazolo[3,4-d]pyrimidin-1-yl)cyclopentyl)-N-methyl-1H-1,2,4-triazole-1-carboxamide]
≤ 1	–	–	CN(C(=O)n1cncn1)C1CCC(n2nc(-c3ccc(Oc4ccccc4)cc3)c(C(N)=O)c2N)C1 (stereo not shown) [Compound 295, N-(3-(5-amino-4-carbamoyl-3-(4-phenoxyphenyl)-1H-pyrazol-1-yl)cyclopentyl)-N-methyl-1H-1,2,4-triazole-1-carboxamide]
